Laboratory results taken from PubChem BioAssay (NCI).
Where “and” joins values, the source holds several entries; their conditions need not be identical. Equal entries are not always repeated.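 A five-concentration, 48-hour dose response in 96-well plates underlies each endpoint, interpolated linearly between surrounding concentrations. Here, GI50 denotes the concentration required for 50% inhibition of growth. The concentration for full growth arrest is given as TGI.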

Tests used:
Experiment in all cases: growth of human tumour cells (NCI), 48 h
MDA-MB-435 = tested on: MDA-MB-435
BT-549 breast = tested on: BT-549 breast
HL-60(TB) leukemia = tested on: HL-60(TB) leukemia
SNB-19 CNS = tested on: SNB-19 CNS
OVCAR-8 ovarian = tested on: OVCAR-8 ovarian
SNB-75 CNS = tested on: SNB-75 CNS
LOX IMVI melanoma = tested on: LOX IMVI melanoma
COLO 205 colon = tested on: COLO 205 colon
SF-539 CNS = tested on: SF-539 CNS
HT29 colon = tested on: HT29 colon

| Compound | GI50 (MDA-MB-435) | TGI (MDA-MB-435) | GI50 (BT-549 breast) | TGI (BT-549 breast) | GI50 (HL-60(TB) leukemia) | TGI (HL-60(TB) leukemia) | GI50 (SNB-19 CNS) | TGI (SNB-19 CNS) [nM] | GI50 (OVCAR-8 ovarian) | TGI (OVCAR-8 ovarian) [nM] | GI50 (SNB-75 CNS) | TGI (SNB-75 CNS) [nM] | GI50 (LOX IMVI melanoma) | TGI (LOX IMVI melanoma) [nM] | GI50 (COLO 205 colon) | TGI (COLO 205 colon) | GI50 (SF-539 CNS) | TGI (SF-539 CNS) | GI50 (HT29 colon) | TGI (HT29 colon) |
| --- | --- | --- | --- | --- | --- | --- | --- | --- | --- | --- | --- | --- | --- | --- | --- | --- | --- | --- | --- | --- |
| CCc1c2c(nc3ccc(OC(=O)OCc4ccc(B5OC(C)(C)C(C)(C)O5)cc4)cc13)-c1cc3c(c(=O)n1C2)COC(=O)[C@]3(O)CC | 52.3 nM | 1530 nM | < 29.1 nM | 1510 nM | 12.1 nM | 22300 nM | < 10 nM | > 100000 | < 11.1 nM | > 71400 | < 11.7 nM | 184 | < 10 nM | 196 | 80.4 nM | 24500 nM | < 10 nM | 28.6 nM | 43.6 nM | > 100000 nM |
| CN1CCN(C(=O)[C@@]2(C)CC[C@]3(C)CC[C@]4(C)C(=CC[C@@H]5[C@@]6(C)CC[C@H](OC(=O)c7cccnc7)C(C)(C)[C@@H]6CC[C@]54C)[C@@H]3C2)CC1 | 1700 nM | 3190 nM | 1700 nM | 3490 nM | 1440 nM | 3360 nM | 1740 nM | 3530 | 2060 nM | 4300 | 1320 nM | 2630 | 1650 nM | 3060 | 1830 nM | 3940 nM | 1600 nM | 3060 nM | 1060 nM | 2690 nM |
| COc1ccc(C2CC(c3ccc4ccccc4c3)=NN2c2nc(O)c(C3=c4cc(Cl)ccc4=NC3=O)s2)cc1 (stereo unspecified) | 21.5 nM and < 5 nM | 48.3 nM and < 5 nM | 49.9 nM and < 5 nM | – | 171 nM | – | 34 nM and < 5 nM | 1180 | 32.8 nM | – | 17.1 nM | 40.8 | 22.3 nM and < 5 nM | – | 22.1 nM | 50.3 nM | 19.5 nM and < 5 nM | 40.2 nM and < 5 nM | 30.7 nM and < 5 nM | 771 nM and 556 nM |
| CCOC1Oc2ccccc2C(=O)/C1=C\Nc1ccc(C(=O)O)c(O)c1 (stereo unspecified) | 20400 nM | 44400 nM | 26400 nM | 87500 nM | 32700 nM | > 100000 nM | 28600 nM | 94400 | 19300 nM | 54000 | 20300 nM | 58300 | 18200 nM | 46800 | 23900 nM | 56500 nM | 25500 nM | 59500 nM | 28700 nM | 72700 nM |
| Cc1ccc2c(c1)C(=O)/C(=C/c1cccc(OCC(=O)c3ccc(Cl)cc3)c1)CS2 | 2400 nM | 6260 nM | 12800 nM | 33800 nM | 2950 nM | 13400 nM | 19500 nM | 77100 | 4530 nM | 24100 | 6390 nM | 44900 | 1840 nM | 3870 | 9310 nM | 35800 nM | 17800 nM | 36600 nM | 2810 nM | 7250 nM |
| CC[C@H](C)[C@H](NC(=O)[C@H]1CCCCN1C)C(=O)N(C)[C@H](C[C@@H](OC(C)=O)c1nc(C(=O)NC23C4C5C2C2C3C4C52C(=O)OC)cs1)C(C)C (stereo partly specified) | 0.349 nM and < 2.5 nM | 2.78 nM and < 2.5 nM | 3.44 nM and 2.5 nM | 80.1 nM and 26.8 nM | 0.317 nM and < 2.5 nM | 1.96 nM and < 2.5 nM | 3.96 nM and 2.5 nM | > 25000 | 2.04 nM and 2.5 nM | > 25000 | 1.25 nM and 2.5 nM | > 25000 | 1.08 nM and 2.5 nM | > 25000 | 3.03 nM and 2.5 nM | 71.5 nM and 11.1 nM | 1.15 nM and 2.5 nM | 11.4 nM and 9.41 nM | 1.14 nM and 2.5 nM | 61.2 nM and 49.3 nM |
| CN(CCCCCCCCNc1ccnc2ccccc12)Cc1ccc(-c2ccc(-c3ccc(C#N)cc3)s2)cc1 | 1190 nM | 2500 nM | 1440 nM | 3200 nM | 1150 nM | 2930 nM | 1310 nM | 2790 | 1020 nM | 4500 | 1350 nM | 2680 | 164 nM | 310 | 630 nM | 2170 nM | 797 nM | 2230 nM | 318 nM | 1770 nM |
| COc1ccc2[nH]cc(Cc3c[nH]c4ccc(OC)cc34)c2c1 | 18100 nM | 35300 nM | 17400 nM | 36100 nM | 44200 nM | > 100000 nM | 29300 nM | 79800 | 17400 nM | 37400 | 13700 nM | 50600 | 14900 nM | 28100 | 18600 nM | 35300 nM | 17200 nM | 33100 nM | 17900 nM | 32300 nM |
